Biological target: T1, hROMK (hKir1.1) (Homo sapiens, UniProt P48048)
T1 construct: expressed in transfected cells; HEK-hKir1.1)
T1 sequence (P48048 1-391): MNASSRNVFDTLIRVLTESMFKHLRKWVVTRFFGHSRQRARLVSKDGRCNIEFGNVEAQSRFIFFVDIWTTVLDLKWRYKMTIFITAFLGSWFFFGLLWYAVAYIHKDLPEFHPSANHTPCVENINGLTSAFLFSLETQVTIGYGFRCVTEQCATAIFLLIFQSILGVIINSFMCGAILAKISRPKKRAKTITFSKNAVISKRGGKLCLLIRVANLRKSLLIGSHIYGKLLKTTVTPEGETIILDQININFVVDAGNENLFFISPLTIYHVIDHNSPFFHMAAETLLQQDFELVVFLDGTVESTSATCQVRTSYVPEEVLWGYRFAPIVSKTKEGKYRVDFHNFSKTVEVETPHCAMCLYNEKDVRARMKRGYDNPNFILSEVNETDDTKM
Assay: Thallium Flux Assay (ROMK channel functional thallium flux assay, FLIPR-Tetra, 384 wells)
Assay type: cell-based
Details: HEK293 cells stably expressing hROMK (hKir1.1); 30 min incubation with test compound
Description: The following Thallium Flux Assay was performed on the final product compounds in all the Examples. This assay makes use of the ability of thallium to permeate through open ROMK channels and increase the fluorescence of a dye previously loaded into the cells. Under control conditions, cells loaded with dye and exposed to thallium-containing medium display a time-dependent increase in fluorescence, the rate of which depends on number of functional channels. When cells are incubated in the presence of a channel inhibitor, the increase in fluorescence is attenuated in a concentration-dependent manner, and IC50 values of inhibition by compounds can be accurately determined. This assay has been established with cell lines expressing either human, or rat ROMK channels, and operates in 384-well format.
HEK293 cells stably expressing hROMK (hKir1.1) were grown at 37° C. in a 10% CO2 humidified incubator in complete growth media: Dulbecco's Modified Eagle Medium supplemented with non-essential amino acids, Penicillin/Streptomycin/Glutamine, G418 and FBS. At >80% confluency, aspirate the media from the flask and rinse with 10 mL Calcium/Magnesium-free PBS. Add 5 mL of 1× trypsin (prepared in Ca/Mg Free PBS) to T-225 flask and return flask to 37° C./CO2 incubator for 2-3 minutes. To dislodge the cell, gently bang the side of the flask with your hand. Triturate the cells completely and then transfer the cells to 25 mL complete media. Centrifuge at 1,500 rpm for 6 min followed by resuspension in complete growth media and determine cell concentration. For typical re-seeding, 4E6 cells/T-225 flask will attain >80% confluency in 4 days. Under ideal growth conditions and appropriate tissue culture practices, this cell line is stable for 40-45 passages.
• FluxOR™ Reagent (Component A) • FluxOR™ Assay Buffer (Component B)—10× Concentrate • PowerLoad™ Concentrate (Component C)—100× Concentrate • Probenecid (Component D)—Lyophilized sample is kept at −20° C. Water soluble, 100× after solubilization in 1 mL water. […] Store at 4° C. • Thallium sulfate (Tl2SO4) Concentrate (Component G)—50 mM in water. Store at 4° C. • DMSO (dimethyl sulfoxide, Component H)—1 mL (100%) Reagent Preparation: FluxOR Working Solutions • 1000× FluxOR™ Reagent: Reconstitute a vial of component A in 100 μl DMSO; Mix well; Store 10 μl aliquots at −20° C. • 1× FluxOR™ Assay Buffer: Dilute Component B 10-fold with water; Adjust pH to 7.4 with Hepes/NaOH; Filter and store at 4° C. • Probenecid/Assay Buffer: 100 mL of 1× FluxOR™ Assay Buffer; 1 mL of reconstituted component D; Store at 4° C. • Loading Buffer (per microplate): 10 μl 1000× FluxOR™ Reagent; 100 μl component C; 10 mL Probenecid/Assay Buffer • Compound Buffer (per microplate): 20 mL Probenecid/Assay Buffer; 0.3 mM ouabain (10 mM ouabain in water can be stored in amber bottle/aluminum foil at room temperature); Test compound • 1× FluxOR™ Chloride-Free Buffer: Prepare 1× working solution in water. Can be stored at room temperature • Stimulant Buffer (prepared at 5× final concentration in 1× FluxOR™ Chloride-Free Buffer): 7.5 mM Thallium sulfate and 0.75 mM Potassium sulfate (to give a final assay concentration of 3 mM Thallium/0.3 mM Potassium). Store at 4° C. when not in use. If kept sterile, this solution is good for months. Assay Protocol—
The ROMK channel functional thallium flux assay is performed in 384 wells, using the FLIPR-Tetra instrument. HEK-hKir1.1 cells are seeded in Poly-D-Lysine microplates and kept in a 37° C.-10% CO2 incubator overnight. On the day of the experiment, the growth media is replaced with the FluxOR™ reagent loading buffer and incubated, protected from light, at ambient temperature (23-25° C.) for 90 min. The loading buffer is replaced with assay buffer±test compound followed by 30 min incubation at ambient temperature, where the Thallium/Potassium stimulant is added to the microplate.
• 1. Seed HEK-hKir1.1 cells (50 μl at 20,000 cells/well) in 384-well PDL coated Microplates • 2. […]

SMILES | IC50 [µM]
Cc1c([C@@H](O)CN2CCN(c3ccc4nc(S(C)(=O)=O)ccc4c3)C(=O)C2)ccc2c1COC2=O [Example 15, 4-[(2R)-2-hydroxy-2-(4-methyl-1-oxo-1,3-dihydro-2-benzofuran-5-yl)ethyl]-1-[2-(methylsulfonyl)quinolin-6-yl]piperazin-2-one] | 0.22
Cc1c([C@@H](O)CN2CCN(c3nc4ccc(C#N)cc4s3)C(=O)C2)ccc2c1COC2=O [Example 9, 2-{4-[(2R)-2-Hydroxy-2-(4-methyl-1-oxo-1,3-dihydro-2-benzofuran-5-yl)ethyl]-2-oxopiperazin-1-yl}-1,3-benzothiazole-6-carbonitrile] | 0.09
Cc1c([C@@H](O)CN2CCN(c3nc4cc(C#N)ccc4s3)C(=O)C2)ccc2c1COC2=O [Example 7, 2-{4-[(2R)-2-Hydroxy-2-(4-methyl-1-oxo-1,3-dihydro-2-benzofuran-5-yl)ethyl]-2-oxopiperazin-1-yl}-1,3-benzothiazole-5-carbonitrile] | 0.04
Cc1c([C@@H](O)CN2CCN(c3ccc4cc(C#N)sc4c3)C(=O)C2)ccc2c1COC2=O [Example 14, 6-{4-[(2R)-2-Hydroxy-2-(4-methyl-1-oxo-1,3-dihydro-2-benzofuran-5-yl)ethyl]-2-oxopiperazin-1-yl}-1-benzothiophene-2-carbonitrile] | 0.16
Cc1c([C@@H](O)CN2CCN(c3ccc4cc(C#N)sc4n3)C(=O)C2)ccc2c1COC2=O [Example 8, 6-{4-[(2R)-2-Hydroxy-2-(4-methyl-1-oxo-1,3-dihydro-2-benzofuran-5-yl)ethyl]-2-oxopiperazin-1-yl}thieno-[2,3-b]pyridine-2-carbonitrile] | 0.16
Cc1c([C@@H](O)CN2CCN(c3cnc4cc(C#N)ccc4c3)C(=O)C2)ccc2c1COC2=O [Example 11, 3-{4-[(2R)-2-Hydroxy-2-(4-methyl-1-oxo-1,3-dihydro-2-benzofuran-5-yl)ethyl]-2-oxopiperazin-1-yl}quinoline-7-carbonitrile] | 0.14
Cc1c([C@@H](O)CN2CCN(c3cc4ccc(C#N)cc4cn3)C(=O)C2)ccc2c1COC2=O [Example 5, 3-{4-[(2R)-2-Hydroxy-2-(4-methyl-1-oxo-1,3-dihydro-2-benzofuran-5-yl)ethyl]-2-oxopiperazin-1-yl}isoquinoline-7-carbonitrile] | 0.08
Cc1c([C@@H](O)CN2CCN(c3ccc4cc(C#N)cnc4c3)C(=O)C2)ccc2c1COC2=O [Example 10, 7-{4-[(2R)-2-Hydroxy-2-(4-methyl-1-oxo-1,3-dihydro-2-benzofuran-5-yl)ethyl]-2-oxopiperazin-1-yl}quinoline-3-carbonitrile] | 0.21
Cc1cc2nc(N3CCN(C[C@H](O)c4ccc5c(c4C)COC5=O)CC3=O)ccc2cc1C#N [Example 12, 2-{4-[(2R)-2-Hydroxy-2-(4-methyl-1-oxo-1,3-dihydro-2-benzofuran-5-yl)ethyl]-2-oxopiperazin-1-yl}-7-methylquinoline-6-carbonitrile] | 0.08
Cc1c([C@@H](O)CN2CCN(c3ccc4cc(C#N)ccc4c3)C(=O)C2)ccc2c1COC2=O [Example 2, 6-{4-[(2R)-2-Hydroxy-2-(4-methyl-1-oxo-1,3-dihydro-2-benzofuran-5-yl)ethyl]-2-oxopiperazin-1-yl}naphthalene-2-carbonitrile] | 0.05
Cc1c([C@@H](O)CN2CCN(c3cc4ccc(C#N)c(C)c4cn3)C(=O)C2)ccc2c1COC2=O [Example 13, 3-{4-[(2R)-2-Hydroxy-2-(4-methyl-1-oxo-1,3-dihydro-2-benzofuran-5-yl)ethyl]-2-oxopiperazin-1-yl}-8-methylisoquinoline-7-carbonitrile] | 0.15
N#Cc1ccc2cc(N3CCN(CCc4ccc5c(c4)COC5=O)CC3=O)ccc2c1 [Example 1, 6-{2-Oxo-4-[2-(1-oxo-1,3-dihydro-2-benzofuran-5-yl)ethyl]piperazin-1-yl}naphthalene-2-carbonitrile] | 0.06
Cc1c([C@@H](O)CN2CCN(c3ccc4ccc(C#N)cc4c3)C(=O)C2)ccc2c1COC2=O [Example 6, 7-{4-[(2R)-2-Hydroxy-2-(4-methyl-1-oxo-1,3-dihydro-2-benzofuran-5-yl)ethyl]-2-oxopiperazin-1-yl}naphthalene-2-carbonitrile] | 0.09
Cc1cc2c(cc1C(O)CN1CCN(c3ccc4cc(C#N)ccc4c3)C(=O)C1)COC2=O (racemic) [Example 3, 6-{4-[2-Hydroxy-2-(6-methyl-1-oxo-1,3-dihydro-2-benzofuran-5-yl)ethyl]-2-oxopiperazin-1-yl}naphthalene-2-carbonitrile] | 0.07

— patent US8999991B2, “Inhibitors of the renal outer medullary potassium channel” (Merck Sharp & Dohme Corp., priority 2011, dated 2015)
